The record followed here is PubChem BioAssay (NCI).

The structures appear in SMILES notation. Where “and” joins values, the source holds several entries; their conditions need not be identical. Equal values may be shown once.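 Values below derive from 48-hour exposures of cells grown in 96-well plates, with endpoints linearly interpolated between the two concentrations bracketing the appropriate inhibition level. GI50 = concentration required for 50% inhibition of growth. The concentration for full growth arrest is given as TGI.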

Among the test systems are UACC-62 melanoma; HL-60(TB) leukemia; M14 melanoma; IGROV1 ovarian; SK-MEL-28 melanoma; MDA-MB-435; NCI-H460 lung; A549 NSCLC; SW-620 colon; KM12 colon.
Test in all cases: DTP human tumour cell line panel, 48 h

For orientation: GI50 means the concentration at which growth is held to half of that of the control. What is called TGI is the concentration giving total growth inhibition. `C[C@@H]1CCc2ncc(F)cc2[C@H]2CCCN2c2ccn3ncc(c3n2)C(=O)N1`: the GI50 in the assay with UACC-62 melanoma was 69.5 µM; with HL-60(TB) leukemia, over 100 µM; with M14 melanoma, over 100 µM; in the assay with IGROV1 ovarian, 34.6 µM; in the assay with SK-MEL-28 melanoma, over 100 µM; in the assay on MDA-MB-435, 83.1 µM. In addition, the values for the GI50 with NCI-H460 lung, in the assay with A549 NSCLC and with SW-620 colon were over 100 µM, 69.3 µM and over 100 µM, respectively. Also, the TGI in the assay on UACC-62 melanoma, in the assay on HL-60(TB) leukemia, in the assay with M14 melanoma, in the assay on IGROV1 ovarian, in the assay with SK-MEL-28 melanoma and with MDA-MB-435 was over 100 µM throughout. In addition, the TGI with NCI-H460 lung, in the assay on A549 NSCLC, in the assay with SW-620 colon and with KM12 colon was over 100 µM in each case.

Regarding `COc1cc2c3cc1Oc1c(OC)c(OC)cc4c1C(Cc1ccc(O)c(c1)Oc1ccc(cc1)CC3N(C)CC2)N(C)CC4` (stereo not given), the TGI with UACC-62 melanoma is > 100 µM and 29.2 µM; with HL-60(TB) leukemia it was 91.3 µM and 54.6 µM; in the assay with M14 melanoma it was over 100 µM; in the assay on IGROV1 ovarian, over 100 µM; in the assay with SK-MEL-28 melanoma it was > 100 µM and 23.1 µM; in the assay on MDA-MB-435, 19.8 µM. Moreover, the total growth inhibition concentration (TGI) is 32.4 µM and 38.8 µM in the assay on NCI-H460 lung; 81.7 µM and 48.8 µM with A549 NSCLC; > 100 µM and 33.4 µM in the assay with SW-620 colon; 65.8 µM and 31.8 µM in the assay with KM12 colon. Moreover, the GI50 in the assay with HL-60(TB) leukemia is 20.2 µM; in the assay with IGROV1 ovarian, 27.7 µM; with SK-MEL-28 melanoma, 8.49 µM; in the assay on MDA-MB-435, 6.7 µM; in the assay on A549 NSCLC, 14.4 µM; in the assay on KM12 colon, 14.2 µM.

On to `N#Cc1cc(S(=O)(=O)Nc2nc3cc(Cl)ccc3o2)c(SCc2ccccc2)cc1Cl`, for which the GI50 was 13.2 µM with UACC-62 melanoma; 12.6 µM in the assay on M14 melanoma; 15 µM with IGROV1 ovarian; 12.8 µM in the assay with SK-MEL-28 melanoma; 16.2 µM in the assay on MDA-MB-435; 15.3 µM in the assay with NCI-H460 lung. The GI50 in the assay with A549 NSCLC was 14.2 µM; in the assay on SW-620 colon, 11.7 µM; in the assay with KM12 colon, 14.9 µM. Moreover, the TGI amounted to 25.9 µM with UACC-62 melanoma; 25.1 µM in the assay with M14 melanoma; 28.3 µM in the assay with IGROV1 ovarian; 25.4 µM with SK-MEL-28 melanoma; 29.7 µM in the assay with MDA-MB-435; 28.6 µM in the assay on NCI-H460 lung. Further, the figures for the TGI with A549 NSCLC, with SW-620 colon and in the assay with KM12 colon were 27.2 µM, 23.9 µM and 28.1 µM, respectively.

On to `C=C1C[C@@H]2O[C@H]3[C@H]4[C@@H](CC[C@@](C)(OC(=O)CCC)[C@H]42)[C@@H](C)C(=O)O[C@@]3(C)CC[C@H]1OO`, for which the GI50 was 12.2 µM in the assay with HL-60(TB) leukemia; 23.7 µM in the assay with M14 melanoma; 17.8 µM in the assay on IGROV1 ovarian; 20 µM with SK-MEL-28 melanoma; 17 µM in the assay on MDA-MB-435; 19.3 µM in the assay on NCI-H460 lung. Further, the GI50 in the assay with A549 NSCLC is 18.5 µM; in the assay with SW-620 colon it was 19.6 µM; in the assay with KM12 colon, 16.4 µM. Further, the TGI in the assay on HL-60(TB) leukemia is 28.1 µM; in the assay on M14 melanoma, 45.3 µM; in the assay with IGROV1 ovarian it was 35.6 µM; in the assay with SK-MEL-28 melanoma, 35.4 µM; in the assay on MDA-MB-435 it was 33.1 µM; in the assay on NCI-H460 lung, 35.8 µM. In addition, the figures for the concentration for total growth inhibition (TGI) with A549 NSCLC, in the assay on SW-620 colon and in the assay with KM12 colon were 34.4 µM, 37.1 µM and 30.9 µM, respectively.

As for `COc1ccc2c(c1)C(=O)c1c-2c(OCCN(C)C)nc2cc(OC)c(OC)cc12`, the GI50 in the assay on UACC-62 melanoma was 51.5 µM; with HL-60(TB) leukemia, 51.6 µM; with M14 melanoma, 18.5 µM; with SK-MEL-28 melanoma, 18.9 µM; in the assay with MDA-MB-435 it was 5.3 µM; in the assay with NCI-H460 lung, 1.22 µM. Besides, the values for the GI50 with A549 NSCLC, with SW-620 colon and in the assay with KM12 colon were 4.2 µM, 0.476 µM and 0.762 µM, respectively. The TGI is over 100 µM in the assay on UACC-62 melanoma; over 100 µM with HL-60(TB) leukemia; 61.6 µM in the assay on M14 melanoma; 35.4 µM in the assay on SK-MEL-28 melanoma; over 100 µM in the assay with MDA-MB-435; 15.3 µM with NCI-H460 lung. The TGI was 21.5 µM with A549 NSCLC, 16.9 µM with SW-620 colon and 13.4 µM with KM12 colon.

As for `O=c1cccc(Cl)[nH]1`, the TGI with UACC-62 melanoma, in the assay with M14 melanoma, in the assay on IGROV1 ovarian, in the assay with SK-MEL-28 melanoma, with MDA-MB-435 and with NCI-H460 lung was over 100 µM each time. Also, the TGI in the assay with A549 NSCLC, in the assay with SW-620 colon and with KM12 colon was over 100 µM in each case.

For the compound `CCCCCC[C@H]1C(=O)O[C@H](C)[C@H](NC(=O)c2cccc(NC=O)c2OC)C(=O)O[C@@H](C)[C@@H]1OC(=O)CCC` (tested in a mixture with another compound), the GI50 with UACC-62 melanoma is 6.54 µM; with HL-60(TB) leukemia, 4.68 µM; with M14 melanoma it was 16 µM; with SK-MEL-28 melanoma, 16.2 µM; in the assay with MDA-MB-435, 9.6 µM; with NCI-H460 lung it was 4.89 µM. Also, the GI50 is 7.24 µM with A549 NSCLC, 13 µM in the assay on SW-620 colon and 9.77 µM with KM12 colon. The TGI in the assay on UACC-62 melanoma is 21.2 µM; in the assay on HL-60(TB) leukemia, 19.9 µM; in the assay on M14 melanoma, 38.3 µM; with SK-MEL-28 melanoma it was 33.3 µM; in the assay with MDA-MB-435, 27.9 µM; in the assay on NCI-H460 lung, 25.5 µM. Besides, the TGI was found to be 22.8 µM in the assay on A549 NSCLC, 72.3 µM in the assay with SW-620 colon and 31.4 µM in the assay on KM12 colon.

`OCCN(CO)CO`: the TGI in the assay on UACC-62 melanoma, in the assay with M14 melanoma, with IGROV1 ovarian, in the assay on SK-MEL-28 melanoma, in the assay with MDA-MB-435 and with NCI-H460 lung was over 100 µM throughout. The TGI in the assay with A549 NSCLC, in the assay with SW-620 colon and in the assay with KM12 colon was over 100 µM throughout.

Regarding `Cn1cnnc1[S-].[Au+].c1ccc([PH+](c2ccccc2)c2ccccc2)cc1`, the GI50 with UACC-62 melanoma is 1.26 µM; with HL-60(TB) leukemia it was 1.48 µM; in the assay on M14 melanoma, 1.4 µM; with SK-MEL-28 melanoma it was 1.52 µM; in the assay with MDA-MB-435 it was 1.57 µM; in the assay with A549 NSCLC, 2.92 µM. Also, the GI50 in the assay with KM12 colon was 1.71 µM. Further, the TGI in the assay with UACC-62 melanoma was 2.55 µM; in the assay on HL-60(TB) leukemia, 4.44 µM; in the assay with M14 melanoma, 2.99 µM; in the assay on SK-MEL-28 melanoma it was 2.91 µM; with MDA-MB-435 it was 2.98 µM; in the assay on A549 NSCLC, 21.3 µM. In the assay on KM12 colon, this compound came in with a TGI of 3.22 µM.

`Cc1cc(NN=C(c2ccc(O)cc2)c2ccc(O)cc2)c([N+](=O)[O-])cc1[N+](=O)[O-]`: the GI50 in the assay with UACC-62 melanoma is 4.77 µM; with HL-60(TB) leukemia it was 2.09 µM; in the assay on M14 melanoma, 4.5 µM; in the assay with SK-MEL-28 melanoma it was 5.59 µM; in the assay on MDA-MB-435, 3.46 µM; in the assay with NCI-H460 lung it was 2.62 µM. Besides, the results for the GI50 in the assay on A549 NSCLC, in the assay on SW-620 colon and in the assay on KM12 colon were 2.47 µM, 8.83 µM and 4.6 µM, respectively. Also, the TGI in the assay with UACC-62 melanoma came out at 19.3 µM; in the assay with HL-60(TB) leukemia, 34.8 µM; in the assay on M14 melanoma it was 21.1 µM; with SK-MEL-28 melanoma it was 21.2 µM; with MDA-MB-435 it was 14.4 µM; in the assay on NCI-H460 lung, 8.57 µM. The figures for the TGI in the assay on A549 NSCLC, with SW-620 colon and in the assay on KM12 colon were over 100 µM, 45.6 µM and 24 µM, respectively.

With `COc1ccc(C)cc1NC(=S)C#N`, the TGI with UACC-62 melanoma, in the assay with HL-60(TB) leukemia, with M14 melanoma, with SK-MEL-28 melanoma, with MDA-MB-435 and in the assay on A549 NSCLC was over 100 µM each time. For the same compound, the TGI with SW-620 colon and in the assay with KM12 colon was over 100 µM throughout.

With `N#[N+]c1ccc(Nc2ccccc2)cc1`, the GI50 in the assay with UACC-62 melanoma was over 50 µg/mL; in the assay on HL-60(TB) leukemia, over 50 µg/mL; in the assay on M14 melanoma, over 50 µg/mL; in the assay on IGROV1 ovarian, over 50 µg/mL; with SK-MEL-28 melanoma, over 50 µg/mL; in the assay with MDA-MB-435, 1.83 µg/mL. The GI50 with A549 NSCLC is over 50 µg/mL; with SW-620 colon it was over 50 µg/mL; in the assay on KM12 colon it was 3.11 µg/mL. Further, the TGI was over 50 µg/mL in the assay with UACC-62 melanoma; over 50 µg/mL with HL-60(TB) leukemia; over 50 µg/mL in the assay on M14 melanoma; over 50 µg/mL in the assay on IGROV1 ovarian; over 50 µg/mL in the assay on SK-MEL-28 melanoma; 17.7 µg/mL with MDA-MB-435. Also, the TGI with A549 NSCLC, in the assay on SW-620 colon and in the assay on KM12 colon was over 50 µg/mL in each case.

`O=[N+]([O-])/C=C/c1ccc(Cl)cc1[N+](=O)[O-]`: the GI50 in the assay on UACC-62 melanoma is 1.55 µM; in the assay with HL-60(TB) leukemia, 3.23 µM; in the assay with M14 melanoma, 4.42 µM; in the assay with IGROV1 ovarian it was 2.01 µM; in the assay on SK-MEL-28 melanoma it was 14 µM; in the assay on MDA-MB-435, 3.62 µM. Further, the GI50 in the assay on NCI-H460 lung is 3.42 µM; in the assay on A549 NSCLC, 6.72 µM; with KM12 colon, 3.09 µM. Also, the TGI turned out to be 3.64 µM with UACC-62 melanoma; 14.1 µM with HL-60(TB) leukemia; 16.5 µM in the assay with M14 melanoma; 5.85 µM with IGROV1 ovarian; 27.7 µM with SK-MEL-28 melanoma; 16.1 µM in the assay on MDA-MB-435. Also, the TGI is 33.5 µM in the assay on NCI-H460 lung, 30.3 µM in the assay on A549 NSCLC and over 100 µM in the assay with KM12 colon.

With `O=C(O)CCCCC1CCSS1` (stereo not given), the TGI with HL-60(TB) leukemia, in the assay with M14 melanoma, in the assay with IGROV1 ovarian, with SK-MEL-28 melanoma, in the assay with MDA-MB-435 and with NCI-H460 lung was over 100 µM throughout. In addition, the TGI in the assay on A549 NSCLC, in the assay with SW-620 colon and in the assay on KM12 colon was over 100 µM in each case.
